Broadly, the NOAEL is the highest dose or exposure tested at which no adverse effect was seen.

Series [1] has as its system Tagia sp.
Series [2] concerns Folsomia candida. The note with it: chronic/long-term.
For series [3], the system named is Apis mellifera. The note with it: acute, mortality.
In series [4] the test system is Daphnia magna. Conditions: chronic/long-term; duration: 21 days; reproduction.
The test system of series [5] is Colinus virginianus.
The subject of series [6] is Bibionidae. The note with it: chronic/long-term; duration: 23 days; reproduction.
Series [7] has as its system Rattus norvegicus. The note with it: for NOAEL: chronic.
In series [8] the test system is Anas platyrhynchos. Conditions: short-term; oral; feed; food consumption.
The test system of series [9] is Oncorhynchus mykiss. Conditions: chronic/long-term; duration: 65 days; mortality.
Series [10] relates to Typhlodromus pyri. The experiment in a line: LR50; higher = less toxic. The note with it: not reported; reproduction.

Values joined by “and” are separate entries in the source; they are usually repeats but may differ in a detail not shown here. Identical values can stand only once.

`c1ccc2[nH]c(-c3cscn3)nc2c1` [Thiabendazole]: the LC50 is greater than 224 mg/kg in series [1] (acute, duration: 14 days, mortality) and greater than 1290 mg/kg in series [8]. The NOEC in series [1] (chronic/long-term, duration: 8 weeks) was 2.1 mg/kg; in [2], 25 mg/kg; in series [4], 0.041 mg/L; in series [6], 2 mg/L and 3 mg/kg; in [9], 0.012 mg/L. Besides, the LD50 was greater than 34 µg/piece in series [3] (dermal); greater than 200 µg/piece in [3] (oral, unspecified); greater than 2250 mg/kg in series [5] (acute, oral); 3100 mg/kg in series [7] (acute). Besides, the NOAEL in series [5] (reproduction developmental) turned out to be 34.9 mg/kg-day; in series [7], 10 mg/kg-day; in series [7] (duration: 2 years, histopathology: neoplastic), 10 mg/kg-day. The compound further yielded an NOEL in series [7] (reproduction developmental, reproduction) of 10 mg/kg-day. This compound showed an LR50 in series [10] greater than 1800 g/ha.

The values above are taken from EPA's ToxValDB 9.5 (doi:10.2903/j.efsa.2014.3880).
